Laboratory results published in publication PMC12278645, “Design, synthesis, and antitumor activity of novel thioheterocyclic nucleoside derivatives by suppressing the c-MYC pathway” (Acta Pharmaceutica Sinica. B, 2025).
Where two headings read alike, the source gives them in different places.

Columns and labels:
[1] = Acute toxicity assay; assay type: in vivo; settings: for Death rate: 10 mice; for Number of dead mice: of 5
Description: SPF BALB/c mice were divided into […] randomly (n = 10, 5 male, and 5 female) and injected intraperitoneally with defined dosages of compound 33a (90, 260, 350, 450, 600, and 800 mg/kg) or dilute (DMSO: castor oil: PBS = 1:2:7, v/v/v). The mice were observed continuously for 14 days after administration. The number of mortalities during the experiment was recorded, and the statistical result of the experimental endpoint was used to calculate LD50.

[2] = test system: CT26 colon cancer xenograft; assay: CT26 xenograft tumor growth assay; assay type: in vivo, BALB/c mice
Description: All animal studies and procedures were approved by the Animal Ethics Committee of College of Chemistry and Chemical Engineering, Henan Normal University, China. CT26 cells (ATCC, Rockville, MD, USA) were used for tumor allograft experiments. […] Mice were injected with CT26 cells (1 × 10^7 per mouse) subcutaneously. The diameter of transplanted mouse tumors was measured with vernier calipers. […] The antitumor activity of the tested compounds was evaluated by measuring the tumor diameter. Tumor diameter and body weight were measured every two days. After 15 days, tumor tissues were surgically removed, weighed, and photographed. The tumor volume (TV) was calculated as in Eq. (1):(1) V=1/2×a×b^2 where a and b represent the length and width, respectively. Samples were used for histology. The tumor growth inhibition rate TGI (%) was calculated with Eq. (2):(2) TGI(%)=(1‒Tw/Cw)×100 where Tw and Cw are the average tumor weight on the 15th day for the treatment group and the model group, respectively.

[3] = Tissue distribution (LC-MS/MS); assay type: in vivo, BALB/c mice; settings: for concentration at 4 h: BALB/c, mouse, intraperitoneal, 55 mg/kg intraperitoneally, after 4 h
[4] = Metabolites in mice (LC-QTOF/MS); assay type: in vivo, BALB/c mice; settings: 55 mg/kg, mixed plasma 0-24 h
Description: SPF BALB/c mice were adaptively fed for one week. In the control group, mice received an intravenous injection of an equal volume of solvent. In the Model group, mice received an intravenous injection of 55 mg/kg of 33a. Following administration at time points of 0, 0.25, 0.5, 1, 2, 4, 8, 12, and 24 h, mixed plasma samples were collected from mice in each group. Subsequently, blood metabolites were detected, identified, and analyzed utilizing LC-QTOF/MS technology.
The ionization mode is Electrospray Ionization in positive mode (ESI+), with an ion source voltage of 5 kV and a temperature set at 550 °C. The collision energy (CE) is 30 eV. The nebulizing gas, gas1 (nebulizer gas), and gas2 (auxiliary gas) are all nitrogen (N2) with their pressures set to 55 psi. The curtain gas (CUR) pressure is 35 psi. The parent ion scan range for the first-order mass spectrum is m/z […] to 1000, and the daughter ion scan range is m/z 50 to 1000. Dynamic Background Subtraction (DBS) is activated. The software used for data acquisition is Analyst® TF 1.8 software.

With `CCOC(=O)[C@]1(n2cnc3c(N4CCCCC4)nc(F)nc32)CSC[C@H]1O` (racemic) [33a] the Death rate ([1]; 90 mg/kg i.p.) was 0%, the “Number of dead mice” value ([1]; 90 mg/kg, ♀) was 0 and the “Number of dead mice” value ([1]; 90 mg/kg, ♂) was 0. The Death rate ([1]; 260 mg/kg i.p.) was 0%, the “Number of dead mice” value ([1]; 260 mg/kg, ♀) was 0 and the “Number of dead mice” value ([1]; 260 mg/kg, ♂) was 0. The Death rate ([1]; 350 mg/kg i.p.) was 10%, the “Number of dead mice” value ([1]; 350 mg/kg, ♀) was 1 and the “Number of dead mice” value ([1]; 350 mg/kg, ♂) was 0. For the same compound, the Death rate ([1]; 450 mg/kg i.p.) was 20%, the “Number of dead mice” value ([1]; 450 mg/kg, ♀) was 2 and the “Number of dead mice” value ([1]; 450 mg/kg, ♂) was 0. For the same compound, the Death rate ([1]; 600 mg/kg i.p.) was 60%, the “Number of dead mice” value ([1]; 600 mg/kg, ♀) was 3 and the “Number of dead mice” value ([1]; 600 mg/kg, ♂) was 3. For the same compound, the Death rate ([1]; 800 mg/kg i.p.) was 100%, the “Number of dead mice” value ([1]; 800 mg/kg, ♀) was 5 and the “Number of dead mice” value ([1]; 800 mg/kg, ♂) was 5. For the same compound, the LD50 at 14 days ([1]; both sexes, mouse, in vivo, ip, BALB/c mice, intraperitoneal, observed 14 days) was 553 mg/kg, the TGI ([2]; 20 mg/kg i.p. once a day for 14 days) was 54.74% and the “IHC of tumor tissue” value ([2]; 55 and 20 mg/kg) was “significantly reduce the expression of tumor proliferation markers Ki67 and PCNA, increase the expression of cleaved caspase-3, and decrease the expression of c-MYC”. For the same compound, the “effect on body weight” value ([2]; 55 and 20 mg/kg i.p., 14 days) was “did not show an obvious toxic effect on body weight”, the “tumor growth” value ([2]; 55 and 20 mg/kg i.p., 14 days, tumor volume and weight) was “significant dose-dependent inhibitory effect on tumor growth” and the “H&E staining of major organs” value ([2]; heart, liver, spleen, lung, kidney) was “the major organs showed no apparent evidence of injury or abnormality”. The “blood-brain barrier passage” value ([3]; 55 mg/kg, 4 h) was “can readily cross the blood‒brain barrier”, the concentration at 4 h ([3]; brain, read-out: concentration in brain) was 87900 ± 21500 ng/g and the concentration at 4 h ([3]; heart, read-out: concentration in heart) was 16900 ± 2990 ng/g. For the same compound, the concentration at 4 h ([3]; kidney, read-out: concentration in kidney) was 70400 ± 5140 ng/g, the concentration at 4 h ([3]; liver, read-out: concentration in liver) was 12500 ± 2130 ng/g and the concentration at 4 h ([3]; lung, read-out: concentration in lung) was 38500 ± 4430 ng/g. The concentration at 4 h ([3]; spleen, read-out: concentration in spleen) was 5490 ± 2450 ng/g and the “metabolic pathways” value [4] was “hydrolysis of carboxylic acid ester and glucuronidation”.
